Data reported in US5162203A, “Methods of measuring isozymes and isozyme classes of alcohol dehydrogenase” (President and Fellows of Harvard College, priority 1989, dated 1992).

System: ADH in human serum (Class I)
Assay: Fluorometric measurement of serum ADH activity with substrate IA
Format: biochemical
Conditions: between-run repeatability, 2 minutes reaction, n=5
Description: All reaction mixtures (3 ml total volume) were prepared directly in 1 cm pathlength, 4 ml fluorometric cuvettes by adding 150 μl of the 300 μM substrate solution (e.g substrate IA or IIA) 100 μl of the 1 mM NADH solution (prepared as in part 5 above) and 2.69 ml of assay buffer (0.1M phosphate, pH 7.6). After thermal equilibration (25° C.) for 5 minutes, 60 μl of isozyme sample (either serum or purified ADH isozymes) was added to the cuvette.
The linear increase of fluorescence was then recorded for 1-10 minutes, until 0.03-1 μM of substrate was consumed. Larger substrate consumption was not found to be desirable (described in subpart (c) below). […] The added product fluorescence intensity was then measured Fluorescence measurements were optimized for samples with low activity (<1 nM/minute). […] Rates measured in the presence of the 0.2 mM ADH inhibitors. […]
The rates of aldehyde reduction, determined as initial velocities (V) and expressed in units of nM/minute, were calculated according to: [formula] where the quantity in parentheses is the slope of the linear fluorescence increase calculated from the quantities Ft and FO, the fluorescence at time t and at the beginning of the reaction, respectively. Cst is the concentration of the product used as a standard added to the cuvette after the initial rate had been measured and Fst is the fluorescence intensity of the added product […]

COc1ccc(C=O)c2ccccc12 [IA, 4-methoxy-1-naphthaldehyde]
Average rate: 144.8 nM/min
